US12435044B2, “Pyridazinone herbicides and pyridazinone intermediates used to prepare a herbicide” (FMC Corporation, priority 2018, dated 2025)

How the values were obtained:
Format in all cases: in vivo
[1] = tested on: rice (ORYSS; Oryza sativa, cv. M202); experiment: Test of Tables L1 to L3, postemergence, mixtures of Cpd. No. 20 with benoxacor, isoxadifen-ethyl, or cloquintocet-mexyl; conditions: approx. 14 d, Cloquintocet-mexyl alone 31 g a.i./ha
Excerpt: (§1) This test evaluated the effect of mixtures of Cpd. No. 20 with benoxacor, isoxadifen-ethyl, or cloquintocet-mexyl on several plant species. Seeds of plant species selected from corn (ZEAMD; Zea mays, cv. ‘Pioneer 1184’), soybean (GLXMA; Glycine max, cv. Pioneer 35T58), winter wheat (TRZAW; Triticum aetivum, cv. Arezzo), rice (ORYSS; Oryza sativa, cv. M202), and giant foxtail (SETFA; Setaria faberi) were planted in pots containing Redi-Earth® planting medium (Scotts Company, 14111 Scottslawn Road, Marysville, Ohio 43041) comprising spaghnum peat moss, vermiculite, wetting agent and starter nutrients and treated postemergence using test chemicals formulated in a non-phytotoxic solvent mixture which included a surfactant. Plants ranged in height from 7 to 10 cm and were in the one- to two-leaf stage for the postemergence treatment. Treated plants and untreated controls were maintained in a greenhouse for approximately 14 d, after which time all treated plants were compared to untreated controls and visually evaluated for injury. Plant response ratings, summarized in Tables L1 to L3, are based on a 0 to 100 scale where 0 is no effect and 100 is complete control. A dash (-) response means no test result. Test results are presented as a mean of 4 reps.

[2] = tested on: winter wheat (TRZAW; Triticum aetivum, cv. Arezzo); experiment: as above; conditions: approx. 14 d, Cloquintocet-mexyl alone 31 g a.i./ha
Excerpt: as §1

[3] = tested on: corn (ZEAMD; Zea mays, cv. ‘Pioneer 1184’); experiment: as above; conditions: approx. 14 d, Cloquintocet-mexyl alone 31 g a.i./ha
Excerpt: as §1

[4] = tested on: giant foxtail (SETFA; Setaria faberi); experiment: as above; conditions: approx. 14 d, Cloquintocet-mexyl alone 31 g a.i./ha
Excerpt: as §1

[5] = tested on: soybean (GLXMA; Glycine max, cv. Pioneer 35T58); experiment: as above; conditions: approx. 14 d, Cloquintocet-mexyl alone 31 g a.i./ha
Excerpt: as §1

[6] = tested on: rice (ORYSS; Oryza sativa, cv. M202); experiment: Test M postemergence, mixtures of Cpd. No. 20 with isoxadifen-ethyl, cloquintocet-mexyl or Mefenpyr-diethyl; conditions: approx. 14 d, second component alone 31 g a.i./ha
Excerpt: as §1, with “with” for “with benoxacor,”, “or cloquintocet-mexyl, or Mefenpyr-diethyl” for “or cloquintocet-mexyl”, “Arezzo), winter barley (HORVW; Hordeum vulgare, cv. Boone),” for “Arezzo),”, “Tables M1” for “Tables L1”, “to M3,” for “to L3,”, “of 3” for “of 4”

[7] = tested on: winter wheat (TRZAW; Triticum aetivum, cv. Arezzo); experiment: as above; conditions: approx. 14 d, second component alone 31 g a.i./ha
Excerpt: as §1, with “with” for “with benoxacor,”, “or cloquintocet-mexyl, or Mefenpyr-diethyl” for “or cloquintocet-mexyl”, “Arezzo), winter barley (HORVW; Hordeum vulgare, cv. Boone),” for “Arezzo),”, “Tables M1” for “Tables L1”, “to M3,” for “to L3,”, “of 3” for “of 4”

[8] = tested on: corn (ZEAMD; Zea mays, cv. ‘Pioneer 1184’); experiment: as above; conditions: approx. 14 d, second component alone 31 g a.i./ha
Excerpt: as §1, with “with” for “with benoxacor,”, “or cloquintocet-mexyl, or Mefenpyr-diethyl” for “or cloquintocet-mexyl”, “Arezzo), winter barley (HORVW; Hordeum vulgare, cv. Boone),” for “Arezzo),”, “Tables M1” for “Tables L1”, “to M3,” for “to L3,”, “of 3” for “of 4”

[9] = tested on: winter barley (HORVW; Hordeum vulgare, cv. Boone); experiment: as above; conditions: approx. 14 d, second component alone 31 g a.i./ha
Excerpt: as §1, with “with” for “with benoxacor,”, “or cloquintocet-mexyl, or Mefenpyr-diethyl” for “or cloquintocet-mexyl”, “Arezzo), winter barley (HORVW; Hordeum vulgare, cv. Boone),” for “Arezzo),”, “Tables M1” for “Tables L1”, “to M3,” for “to L3,”, “of 3” for “of 4”

[10] = tested on: giant foxtail (SETFA; Setaria faberi); experiment: as above; conditions: approx. 14 d, second component alone 31 g a.i./ha
Excerpt: as §1, with “with” for “with benoxacor,”, “or cloquintocet-mexyl, or Mefenpyr-diethyl” for “or cloquintocet-mexyl”, “Arezzo), winter barley (HORVW; Hordeum vulgare, cv. Boone),” for “Arezzo),”, “Tables M1” for “Tables L1”, “to M3,” for “to L3,”, “of 3” for “of 4”

[11] = tested on: soybean (GLXMA; Glycine max, cv. Pioneer 35T58); experiment: as above; conditions: approx. 14 d, second component alone 31 g a.i./ha
Excerpt: as §1, with “with” for “with benoxacor,”, “or cloquintocet-mexyl, or Mefenpyr-diethyl” for “or cloquintocet-mexyl”, “Arezzo), winter barley (HORVW; Hordeum vulgare, cv. Boone),” for “Arezzo),”, “Tables M1” for “Tables L1”, “to M3,” for “to L3,”, “of 3” for “of 4”

CCCCCC(C)OC(=O)COc1ccc(Cl)c2cccnc12 (centres unmarked) [Cloquintocet-mexyl, cloquintocet-mexyl, reference compound]
0: Plant response rating (0 to 100 scale) ORYSS [1] | Plant response rating (0 to 100 scale) TRZAW [2] | Plant response rating (0 to 100 scale) ZEAMD [3] | Plant response rating (0 to 100 scale) SETFA [4] | Plant response rating (0 to 100 scale) GLXMA [5] | Plant response rating (0 to 100 scale) ORYSS [6] | Plant response rating (0 to 100 scale) TRZAW [7] | Plant response rating (0 to 100 scale) ZEAMD [8] | Plant response rating (0 to 100 scale) HORVW [9] | Plant response rating (0 to 100 scale) SETFA [10] | Plant response rating (0 to 100 scale) GLXMA [11]
